{"source": "patent US5438130A", "about": "“Fucosylated guanosine disulfates as excitatory amino acid antagonists” (priority 1993, dated 1995)", "key": {"[1]": {"test_system": "delayed neuronal degeneration following transient forebrain ischemia", "settings": "cited from earlier work"}, "[2]": {"settings": "in vivo; cited from earlier work"}, "kainate receptor [3]": {"biological_target": "kainate receptor", "settings": "printed for comparison; source not stated; read-out: IC50 (comparison, non-NMDA antagonists); cited from earlier work"}, "stroke": {"test_system": "stroke", "settings": "cited from earlier work"}, "[4]": {"settings": "in vivo; cited from earlier work", "remark": "listed apart in the source"}, "kainate receptor [5]": {"biological_target": "kainate receptor", "assay": "Displacement of [3H]-kainate, rat forebrain crude synaptic membranes", "settings": "50 mM Tris-acetate; 1 hour at 4° C.; FIG. 3; read-out: IC50, displacement of [3H]-kainate binding", "protocol": "The ability of HF7 to block the kainate receptor was tested using a [^3 H]-kainate binding assay. More specifically, a standard receptor binding assay [London, E. D. et al. Molecular Pharmacol. 15:492 (1979)] was performed to determine the extent to which HF7 could displace the binding of radioactive kainate ([^3 H]-kainate, 1.0 mCi/ml, NEN). The membrane source was frozen rat forebrain crude synaptic membranes treated with detergent (0.01% TRITON-X100). Radioligand binding was determined using 50 mM Tris-acetate buffer. Samples were incubated for 1 hour at 4° C. and then filtered over either Whatman GF/B or Schleicher & Schuell glass filters. Non-specific binding was determined using 10^-4 M glutamate. [^3 H]-kainate binding was linear from 50-400 μg protein/tube."}, "[6]": {"test_system": "quisqualate currents in fish horizontal cells", "assay": "Voltage clamp of quisqualate-elicited currents in fish retinal horizontal cells", "format": "cell-based", "settings": "quisqualate 10μM", "protocol": "(§1) Two sets of experiments were conducted to determine the concentration dependence of both kainate and quisqualate currents to HF7. Each experiment was conducted in a manner similar to that in which the FIG. 4 experiment was conducted. Inward currents were elicited by bath perfusion of either 25μM kainate or by 10μM quisqualate. Six doses of HF7 were utilized for each set of experiments. Each dose was tried on three different cells. Responses to HF7 were calculated as a percent of control kainate current. […] Each point in FIG. 5 is the mean of measurement from three different cells."}, "[7]": {"test_system": "T-type calcium currents in N1E-115 murine neuroblastoma cells", "assay": "T-type calcium currents in N1E-115 neuroblastoma cells, whole cell voltage clamp", "format": "cell-based", "settings": "-90 mV to -25 mV; especially between 0 and 90μM; FIG. 7", "protocol": "(§2) L-type calcium currents were obtained from cultured N1E-115 murine neuroblastoma cells using standard whole cell voltage clamp techniques [Hamill, O. P. et al. Pflugers Archives 391:85 (1981)]. For recording inward currents, external calcium was substituted with barium. Cells were maintained in a external recording solution containing TEA.Cl, 130 mM; BaCl2, 5 mM; glucose, 10 mM; HEPES, 10 mM; tetrodotoxin, 1μM; pH 7.4). The pipette solution contained CsCl, 115 mM; EGTA, 10 mM; HEPES, 10 mM; Mg.ATP, 4 mM.\n(§3) Two sets of experiments were conducted to determine the concentration dependence of both L- and T-type calcium currents to HF7. Each experiment was conducted in a manner similar to that in which the FIG. 6 experiment was performed. Inward L-type currents were elicited by depolarizing test pulses to +10 mV from a resting potential of -50 mV. Inward T-type currents were elicited by depolarizing test pulses to -25 mV from a resting potential of -90 mV. Six doses of HF7 were utilized for each set of experiments. Each dose was tried on three different cells. Responses to HF7 were calculated as percent inhibition of control current. Negative values represent current levels that were greater than control."}, "[8]": {"test_system": "glutamate-induced current", "assay": "Whole cell recording of glutamate-induced current under voltage clamp (HPLC fraction assay)", "format": "cell-based", "settings": "HF7 peak, voltage clamp mode", "protocol": "The components were eluted from the column stepwise with 0%, 2% and 4% acetonitrile in 0.1% TFA for the duration of 45 min., 15 min. and 40 min., respectively, at a flow rate of 2 ml/min. The elution was monitored by absorbance at 214 nm (FIG. 2) and 254 nm. According to the elution profile, fractions were collected manually and, after being dried down and dissolved in an appropriate buffer, were assayed in whole cell recording of glutamate-induced current under the voltage clamp mode (see \"Functional Characterization\" below for details). […] The other batch of HF7 was also purified with a slightly different program of acetonitrile stepwise elution (1% for 20 min., 2% for 20 min. and 4% for 40 min.), resulting in a shorter operation time without a significant change in the elution profile."}, "[9]": {"test_system": "L-type calcium currents in N1E-115 murine neuroblastoma cells", "assay": "L-type calcium currents in N1E-115 neuroblastoma cells, whole cell voltage clamp", "format": "cell-based", "protocol": "as §2\nThe results from one experiment can be seen in FIG. 6. A depolarizing test pulse to +10 mV elicited an inward current of ~240 pA, which was reduced by 20% by pressure-ejection (6 psi) of 22μM HF7. The effects of HF7 blockade were partially reversible (60% recovery) subsequent to washout of HF7. The voltage protocol is shown in the inset. Cells were held at Vh =-50 mV. L-type currents were evoked following a depolarizing voltage step to +10 mV.\nas §3"}, "[10]": {"test_system": "ionic currents elicited by glutamate in fish retinal neurons", "assay": "Voltage clamp of glutamate-elicited currents in fish retinal neurons", "format": "cell-based", "settings": "glutamate 50μM"}, "kainate receptors": {"test_system": "kainate receptors", "assay": "Voltage clamp of kainate-elicited currents in fish retinal horizontal cells", "format": "cell-based", "excerpt": "In this experiment, kainate currents were obtained from primary cultures of fish retinal horizontal cells using standard whole cell voltage clamp techniques [Hamill, O. P. et al. Pflugers Archives 391:85 (1981)]. For recordings cells were maintained in a physiological saline containing (in mM) NaCl, 145; KCl, 2.5; CaCl2, 2.5; MgSO4, 1.0; glucose, 10; HEPES, 10, pH 7.5). Cells were held near resting potential (Vh =-60 mV). Kainate current was elicited by superfusion of a solution of physiological saline solution containing 25μM kainate.\nas §1"}}, "note": "Where two headings read alike, the source gives them in different places."}
{"smiles": "NS(=O)(=O)c1cccc2c1c([N+](=O)[O-])cc1nc(O)c(O)nc12", "note": "[NBQX, 2,3-dihydroxy-6-nitro-7-sulfamoyl-benzo(F)quinoxaline]", "values": [{"measurement": "protection on delayed administration", "setting": "[1]; administered several hours after the ischemic insult", "value": "protection was observed"}, {"measurement": "prevention of delayed neuronal degeneration following transient forebrain ischemia", "setting": "[1]; gerbils and rats, relatively large systemic doses", "value": "dramatically effective"}, {"measurement": "crossing of the blood-brain barrier", "setting": "[2]", "value": "only in minute amounts"}]}
{"smiles": "O=c1[nH]c2cc([N+](=O)[O-])c([N+](=O)[O-])cc2[nH]c1=O", "note": "[DNQX]", "values": [{"measurement": "IC50", "setting": "kainate receptor [3]", "value": "~2", "unit": "µM"}]}
{"smiles": "N#Cc1cc2[nH]c(=O)c(=O)[nH]c2cc1[N+](=O)[O-]", "note": "[CNQX]", "values": [{"measurement": "IC50", "setting": "kainate receptor [3]", "value": "~2", "unit": "µM"}]}
{"smiles": "COCCOC(=O)C1=C(C)NC(C)=C(C(=O)OC(C)C)C1c1cccc([N+](=O)[O-])c1", "note": "(stereo not shown) [nimodipine]", "values": [{"measurement": "improvement in the outcome of stroke", "setting": "stroke; clinical trials", "value": "Modest improvement"}, {"measurement": "cardiovascular side effects", "setting": "stroke; in vivo", "value": "significant cardiovascular side effects"}, {"measurement": "toxicity relative to NMDA antagonists", "setting": "[4]", "value": "less toxic than the NMDA antagonists"}]}
{"smiles": "CC(=O)OC1C(C)OC(O[C@@H]2[C@H](OS(=O)(=O)O)[C@@H](COS(=O)(=O)O)O[C@H]2n2cnc3c(=O)[nH]c(N)nc32)C(O)C1O", "note": "(stereo partly shown) [HF7]", "values": [{"measurement": "IC50", "setting": "kainate receptor [5]", "value": "~20.7", "unit": "µM"}, {"measurement": "inhibition of ionic currents elicited by quisqualate", "setting": "[6]", "value": "reversibly inhibited"}, {"measurement": "IC50", "setting": "[6]; mean of three cells per dose, FIG. 5, read-out: IC50, quisqualate current", "value": "~60", "unit": "µM"}, {"measurement": "effect on T-type current", "setting": "[7]", "value": "much more variable"}, {"measurement": "activity on glutamate-induced current", "setting": "[8]", "value": "found to be active"}, {"measurement": "reduction of L-type inward current", "setting": "[9]; 22μM HF7, Vh = -50 mV, test pulse to +10 mV, FIG. 6", "value": 20, "unit": "%"}, {"measurement": "recovery of L-type current after washout", "setting": "[9]; subsequent to washout of 22μM HF7, partially reversible", "value": 60, "unit": "%"}, {"measurement": "concentration dependence of L-type current inhibition", "setting": "[9]; throughout the concentration range used, -50 mV to +10 mV, FIG. 7", "value": "inhibited in a concentration dependent manner"}, {"measurement": "inhibition of ionic currents elicited by glutamate", "setting": "[10]", "value": "reversibly inhibited"}, {"measurement": "effect on kainate-elicited inward current", "setting": "kainate receptors; approximately 180μM HF7, pressure-ejection, Vh = -60 mV, kainate 25μM", "value": "virtually eliminated"}, {"measurement": "inhibition of ionic currents elicited by kainate", "setting": "kainate receptors; kainate 25μM", "value": "reversibly inhibited"}, {"measurement": "IC50", "setting": "kainate receptors; kainate 25μM, mean of three cells per dose, FIG. 5, read-out: IC50, kainate current", "value": "~60", "unit": "µM"}, {"measurement": "reversibility of HF7 blockade of kainate current", "setting": "kainate receptors; subsequent to washout", "value": "fully reversible"}, {"measurement": "inhibition of the kainate response", "setting": "kainate receptors; ~200μM HF7, FIG. 4, kainate 25μM", "value": "near-complete inhibition"}]}
